Assay results from US20250092345A1, “INTER ORGAN PLATFORM FOR MICROPHYSIOLOGICAL SYSTEM ON A CHIP” (THE TRUSTEES OF COLUMBIA UNIVERSITY IN THE CITY OF NEW YORK, priority 2020, published 2025).

Columns and labels:
[1] = cited from earlier work
[2] = target: T1, IGF-1 receptor (Homo sapiens, UniProt P08069); experiment: Phospho-IGF1R ELISA in ES cell monolayers; assay type: cell-based; settings: 12 μM for 6 hours
T1 construct: endogenous in cells; host or cells: RD-ES (ATCC HTB-166) and SK-N-MC (ATCC HTB-10) Ewing sarcoma cell lines
T1 sequence (P08069 31-1367): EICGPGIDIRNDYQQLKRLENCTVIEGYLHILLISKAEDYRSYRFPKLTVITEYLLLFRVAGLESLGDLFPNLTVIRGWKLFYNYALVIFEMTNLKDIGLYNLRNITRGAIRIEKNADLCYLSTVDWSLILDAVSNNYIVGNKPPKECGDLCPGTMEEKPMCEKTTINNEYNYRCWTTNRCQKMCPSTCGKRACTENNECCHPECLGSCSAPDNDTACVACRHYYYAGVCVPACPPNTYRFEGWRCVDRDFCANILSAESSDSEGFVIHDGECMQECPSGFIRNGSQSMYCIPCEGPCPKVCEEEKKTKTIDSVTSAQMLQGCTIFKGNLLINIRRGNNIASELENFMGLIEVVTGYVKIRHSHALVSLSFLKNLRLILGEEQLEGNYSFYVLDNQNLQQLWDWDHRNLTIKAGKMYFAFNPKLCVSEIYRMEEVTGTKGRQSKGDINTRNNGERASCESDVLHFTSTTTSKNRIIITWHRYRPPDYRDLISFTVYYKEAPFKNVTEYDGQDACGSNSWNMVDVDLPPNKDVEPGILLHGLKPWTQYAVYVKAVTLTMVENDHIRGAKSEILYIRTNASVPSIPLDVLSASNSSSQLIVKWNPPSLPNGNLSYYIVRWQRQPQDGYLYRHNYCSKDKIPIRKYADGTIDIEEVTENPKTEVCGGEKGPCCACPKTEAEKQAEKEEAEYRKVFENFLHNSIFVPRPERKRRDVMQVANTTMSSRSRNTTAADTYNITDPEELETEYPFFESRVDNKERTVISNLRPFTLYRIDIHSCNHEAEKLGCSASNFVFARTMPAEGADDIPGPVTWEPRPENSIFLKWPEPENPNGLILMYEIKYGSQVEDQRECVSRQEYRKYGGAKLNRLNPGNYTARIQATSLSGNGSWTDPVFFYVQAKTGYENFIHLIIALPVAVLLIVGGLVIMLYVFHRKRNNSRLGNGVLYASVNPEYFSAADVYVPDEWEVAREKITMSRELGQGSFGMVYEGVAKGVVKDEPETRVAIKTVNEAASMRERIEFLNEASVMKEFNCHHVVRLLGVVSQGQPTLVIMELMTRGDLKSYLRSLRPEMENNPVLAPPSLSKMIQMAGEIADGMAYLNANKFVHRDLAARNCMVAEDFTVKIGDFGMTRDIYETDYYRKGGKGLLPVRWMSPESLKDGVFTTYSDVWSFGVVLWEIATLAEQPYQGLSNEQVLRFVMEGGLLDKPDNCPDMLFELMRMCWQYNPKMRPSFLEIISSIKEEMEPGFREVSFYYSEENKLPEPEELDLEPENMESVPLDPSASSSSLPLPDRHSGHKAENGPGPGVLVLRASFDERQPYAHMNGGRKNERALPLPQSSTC

[3] = tested on: engineered cardiac tissues; experiment: Engineered cardiac tissues in isolation, linsitinib cardiotoxicity; assay type: cell-based, human; settings: after linsitinib exposure, isolated
From the text: After establishing the capability of TE-ES tumors to model drug efficacy, we evaluated the ability of cardiac tissues to determine the cardiotoxicity of linsitinib. Cardiac tissues were exposed to the same therapeutic concentration of linsitinib as bone tumors. […] Cardiotoxicity of linsitinib has been observed in clinical trials of other types of cancer, with patients presenting proarrhythmic events, like tachycardia (3.75-5% of patients) and atrial fibrillation (3.75-5%). We observed higher beat frequency and higher rate of proarrhythmic events per beat (around 36%) than in clinical studies (FIG. 32B and FIG. 32C). […]
Cardiac tissues were studied using caffeine (50 mM in water; Sigma-Aldrich), amiodarone hydrochloride (2.418 µM in DMSO; Sigma-Aldrich), isoproterenol hydrochloride (a series of drug concentrations in water; Sigma-Aldrich) or doxorubicin hydrochloride (1 µM in DMSO; Sigma-Aldrich), all diluted in RPMI Medium 1640 supplemented with B-27[…]. Response to isoproterenol was analyzed 10 minutes after exposure to […] isoproterenol hydrochloride, diluted in RPMI Medium […] supplemented with B27[…]. […]
To measure the cardiac contractility online, we took contractility videos of the tissues that were analyzed using the native MATLAB code we previously developed. Tissue contractility was measured by tracking the change in tissue area as a function of time. […]

[4] = cited from earlier work; remark: listed apart in the source
[5] = tested on: engineered cardiac tissues; experiment: Cardiac tissue in the integrated platform with microfluidic perfusion, linsitinib; assay type: cell-based, human; settings: after linsitinib exposure
Procedure: The TE-ES and cardiac tissues were then cultured in the integrated platform with perfusion of mixed media. Linsitinib was introduced into the reservoir and delivered to tissues via circulation of perfusate and diffusion into the tissues.
Human iPS cell-derived cardiomyocytes at day 13 of differentiation were combined with normal human dermal fibroblasts (NHDF; Lonza) at a ratio of 75% human iPS-derived cardiomyocytes and 25% NHDF, for a total of 1 million cells per tissue. The hydrogel was formed by mixing 33 mg/mL of human fibrinogen (Sigma-Aldrich) with 25 U/mL of human thrombin (Sigma-Aldrich), at an 84:16 ratio. […]
To measure the cardiac contractility online, we took contractility videos of the tissues that were analyzed using the native MATLAB code we previously developed. Tissue contractility was measured by tracking the change in tissue area as a function of time. […] Absolute differences in cell area from the baseline frame were then calculated to create a time course of cell area changes over time. The resulting time courses were analyzed using a native MATLAB (MATHWorks) automated peak finding algorithm to determine locations of maximum cell contractions in the time profiles. Beat period lengths were determined from the length of time between the pairs of local maxima, and the beat frequencies were determined by inverting beat periods. […]

Q: With `C[C@]1(O)C[C@@H](c2nc(-c3ccc4ccc(-c5ccccc5)nc4c3)c3c(N)nccn32)C1` [linsitinib] as the compound, how does the “clinical outcome in ES” value ([1]; Phase II clinical trial, no patients completing the trial) read?
A: unable to stop progression of ES

Q: What about the atrial fibrillation ([1]; clinical trials of other types of cancer) of the same compound?
A: 3.75-5%

Q: What about the “levels of phosphorylated IGF-1R” value [2] of the same compound?
A: significant decreases

Q: And the “inotropic response to subsequent isoproterenol” value [3]?
A: not observed

Q: What about the half-life [4] of the same compound?
A: approximately 5 hours

Q: And the “inotropic response to subsequent isoproterenol” value [5]?
A: expected inotropic response
